What was measured:
[1] = biological target: T1, ATP-binding cassette sub-family C member 2 (Rattus norvegicus, UniProt Q63120); assay: TP_TRANSPORTER: In vivo biliary excretion of SDR rat; type: functional, organism-based, Sprague-Dawley, Bile
[2] = biological target: T1, ATP-binding cassette sub-family C member 2; assay: TP_TRANSPORTER: In vivo biliary excretion in vivo, biliary excretion of SDR and EHBR rat; type: functional, organism-based, Bile

T1 sequence (Q63120 whole entry): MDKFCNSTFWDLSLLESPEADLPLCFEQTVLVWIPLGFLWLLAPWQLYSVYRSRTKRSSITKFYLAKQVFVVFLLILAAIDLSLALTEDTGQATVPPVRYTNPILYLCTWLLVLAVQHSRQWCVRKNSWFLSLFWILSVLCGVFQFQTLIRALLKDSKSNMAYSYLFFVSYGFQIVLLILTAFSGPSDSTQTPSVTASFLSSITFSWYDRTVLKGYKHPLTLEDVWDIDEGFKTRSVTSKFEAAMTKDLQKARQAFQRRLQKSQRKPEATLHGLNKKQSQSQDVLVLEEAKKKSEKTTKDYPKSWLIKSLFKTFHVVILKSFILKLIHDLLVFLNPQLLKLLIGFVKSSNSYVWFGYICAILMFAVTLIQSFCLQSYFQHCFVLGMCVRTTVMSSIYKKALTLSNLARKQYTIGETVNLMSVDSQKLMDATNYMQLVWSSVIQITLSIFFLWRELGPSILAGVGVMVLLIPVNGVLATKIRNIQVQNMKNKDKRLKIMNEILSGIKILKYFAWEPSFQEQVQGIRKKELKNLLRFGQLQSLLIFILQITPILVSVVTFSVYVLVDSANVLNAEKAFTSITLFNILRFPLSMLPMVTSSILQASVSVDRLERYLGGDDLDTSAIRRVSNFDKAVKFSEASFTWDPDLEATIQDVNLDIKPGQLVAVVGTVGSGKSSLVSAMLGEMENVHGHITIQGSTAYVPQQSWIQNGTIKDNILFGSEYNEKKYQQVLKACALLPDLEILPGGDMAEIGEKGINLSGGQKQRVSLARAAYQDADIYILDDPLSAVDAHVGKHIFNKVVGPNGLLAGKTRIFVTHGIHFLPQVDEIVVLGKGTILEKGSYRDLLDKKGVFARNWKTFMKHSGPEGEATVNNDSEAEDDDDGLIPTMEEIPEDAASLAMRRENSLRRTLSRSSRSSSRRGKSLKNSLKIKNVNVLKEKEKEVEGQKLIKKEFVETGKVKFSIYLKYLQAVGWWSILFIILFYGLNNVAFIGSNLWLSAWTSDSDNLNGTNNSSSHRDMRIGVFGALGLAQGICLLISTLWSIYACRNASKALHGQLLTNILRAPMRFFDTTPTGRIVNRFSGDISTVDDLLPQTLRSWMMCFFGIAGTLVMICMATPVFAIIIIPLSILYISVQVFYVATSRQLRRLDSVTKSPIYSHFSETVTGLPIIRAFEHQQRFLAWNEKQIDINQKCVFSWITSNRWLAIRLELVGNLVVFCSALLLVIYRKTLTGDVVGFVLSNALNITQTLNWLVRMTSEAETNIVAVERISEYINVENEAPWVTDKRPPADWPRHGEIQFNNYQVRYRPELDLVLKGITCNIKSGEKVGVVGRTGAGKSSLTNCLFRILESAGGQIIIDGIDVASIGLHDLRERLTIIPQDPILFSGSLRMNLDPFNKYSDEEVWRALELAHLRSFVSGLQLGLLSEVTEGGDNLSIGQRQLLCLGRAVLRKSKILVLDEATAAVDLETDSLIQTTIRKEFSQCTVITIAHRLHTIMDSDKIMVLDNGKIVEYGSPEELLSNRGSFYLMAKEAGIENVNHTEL

Row | Activity [1] | Activity [2] | Compound
1 | substrate [] | substrate [] | CN(Cc1cnc2nc(N)nc(N)c2n1)c1ccc(C(=O)N[C@@H](CCC(=O)O)C(=O)O)cc1 [METHOTREXATE]
2 | substrate [] | substrate [] | CCCN(CCC)S(=O)(=O)c1ccc(C(=O)O)cc1 [PROBENECID]
